Assay in all cases: biochemical
Common to all, as to assay type: binding

Test [1] concerns the target T1, panel of 442 kinases (Homo sapiens, UniProt Q9NY57).
T1 construct: purchased Ambit Biosciences (scanMAXX KINOMEscan)
Particulars: kinase YANK2; for remaining activity at 1 µM: read-out: YANK2 (% of control at 1 µM).

Test [2] deals with T2, panel of 442 kinases (Homo sapiens, UniProt Q8NFD2).
T2 construct: purchased Ambit Biosciences (scanMAXX KINOMEscan)
T2 sequence (Q8NFD2 1-765): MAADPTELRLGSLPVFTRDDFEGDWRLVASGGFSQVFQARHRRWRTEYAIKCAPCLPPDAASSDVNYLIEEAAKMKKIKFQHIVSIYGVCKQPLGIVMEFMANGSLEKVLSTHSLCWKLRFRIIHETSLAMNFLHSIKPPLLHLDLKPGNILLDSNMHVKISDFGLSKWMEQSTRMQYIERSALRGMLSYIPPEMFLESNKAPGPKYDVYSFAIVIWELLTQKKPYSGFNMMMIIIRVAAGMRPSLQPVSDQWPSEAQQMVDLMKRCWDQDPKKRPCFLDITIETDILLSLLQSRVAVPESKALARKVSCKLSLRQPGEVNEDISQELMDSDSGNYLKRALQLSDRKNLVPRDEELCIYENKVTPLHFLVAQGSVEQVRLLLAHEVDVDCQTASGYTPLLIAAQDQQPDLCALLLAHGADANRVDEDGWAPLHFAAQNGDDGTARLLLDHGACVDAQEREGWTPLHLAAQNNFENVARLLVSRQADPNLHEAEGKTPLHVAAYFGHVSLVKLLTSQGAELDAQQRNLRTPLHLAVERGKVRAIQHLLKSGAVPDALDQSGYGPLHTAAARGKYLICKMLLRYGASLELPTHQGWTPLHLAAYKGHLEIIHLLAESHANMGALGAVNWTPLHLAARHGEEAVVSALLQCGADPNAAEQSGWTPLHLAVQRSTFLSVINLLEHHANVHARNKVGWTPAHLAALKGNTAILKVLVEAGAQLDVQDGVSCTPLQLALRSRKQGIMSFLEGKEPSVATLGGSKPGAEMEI
As to conditions: ANKK1; for remaining activity at 1 µM: read-out: % of control at 1 µM.

Test [3] concerns the target T3, panel of 442 kinases (Homo sapiens, UniProt O15111).
T3 construct: purchased Ambit Biosciences (scanMAXX KINOMEscan)
T3 sequence (O15111 1-745): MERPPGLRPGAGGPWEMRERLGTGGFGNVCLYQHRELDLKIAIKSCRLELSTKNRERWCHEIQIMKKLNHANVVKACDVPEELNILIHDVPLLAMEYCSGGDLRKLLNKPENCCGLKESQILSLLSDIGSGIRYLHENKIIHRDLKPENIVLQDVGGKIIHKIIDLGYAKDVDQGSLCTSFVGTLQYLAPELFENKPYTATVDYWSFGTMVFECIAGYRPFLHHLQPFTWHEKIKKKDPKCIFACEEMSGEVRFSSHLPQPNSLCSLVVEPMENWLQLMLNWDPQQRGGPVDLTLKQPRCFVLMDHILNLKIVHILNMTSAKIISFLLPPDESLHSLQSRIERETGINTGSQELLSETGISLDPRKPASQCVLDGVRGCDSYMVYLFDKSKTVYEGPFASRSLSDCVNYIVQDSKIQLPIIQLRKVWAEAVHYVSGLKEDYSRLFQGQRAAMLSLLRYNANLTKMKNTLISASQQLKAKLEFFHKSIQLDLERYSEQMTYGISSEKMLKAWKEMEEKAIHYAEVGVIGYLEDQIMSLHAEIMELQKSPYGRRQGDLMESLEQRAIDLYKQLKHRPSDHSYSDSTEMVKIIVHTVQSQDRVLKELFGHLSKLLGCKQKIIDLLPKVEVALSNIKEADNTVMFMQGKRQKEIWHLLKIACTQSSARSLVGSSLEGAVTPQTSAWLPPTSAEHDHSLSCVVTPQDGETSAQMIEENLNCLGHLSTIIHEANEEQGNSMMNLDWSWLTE
Particulars: kinase IKK-alpha; for remaining activity at 1 µM: read-out: % of control at 1 µM.

Test [4] deals with T4, panel of 442 kinases (Homo sapiens, UniProt P24723).
T4 construct: purchased Ambit Biosciences (scanMAXX KINOMEscan)
T4 sequence (P24723 whole entry): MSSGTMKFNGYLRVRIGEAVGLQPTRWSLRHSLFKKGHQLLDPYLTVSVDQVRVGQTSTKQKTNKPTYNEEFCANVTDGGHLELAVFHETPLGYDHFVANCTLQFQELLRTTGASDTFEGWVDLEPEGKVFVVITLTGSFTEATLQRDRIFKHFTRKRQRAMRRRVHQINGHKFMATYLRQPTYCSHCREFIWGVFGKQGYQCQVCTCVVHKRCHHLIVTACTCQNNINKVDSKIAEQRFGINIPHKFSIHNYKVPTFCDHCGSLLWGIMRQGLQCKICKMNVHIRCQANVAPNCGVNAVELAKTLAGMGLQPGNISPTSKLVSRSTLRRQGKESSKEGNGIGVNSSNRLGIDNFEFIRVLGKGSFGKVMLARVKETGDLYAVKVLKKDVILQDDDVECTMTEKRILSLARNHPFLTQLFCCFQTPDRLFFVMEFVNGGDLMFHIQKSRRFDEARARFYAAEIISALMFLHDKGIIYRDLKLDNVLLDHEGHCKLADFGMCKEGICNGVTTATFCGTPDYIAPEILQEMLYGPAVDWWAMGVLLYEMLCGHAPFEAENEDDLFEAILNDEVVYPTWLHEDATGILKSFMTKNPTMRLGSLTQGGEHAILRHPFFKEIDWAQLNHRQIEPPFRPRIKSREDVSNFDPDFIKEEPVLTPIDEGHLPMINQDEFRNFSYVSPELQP
Particulars: kinase PRKCH; for remaining activity at 1 µM: read-out: PRKCH (% of control at 1 µM).

The mark [5] stands for this setting: 10 µM, read-out: % of control at 10 µM.

T1 sequence (Q9NY57 whole entry): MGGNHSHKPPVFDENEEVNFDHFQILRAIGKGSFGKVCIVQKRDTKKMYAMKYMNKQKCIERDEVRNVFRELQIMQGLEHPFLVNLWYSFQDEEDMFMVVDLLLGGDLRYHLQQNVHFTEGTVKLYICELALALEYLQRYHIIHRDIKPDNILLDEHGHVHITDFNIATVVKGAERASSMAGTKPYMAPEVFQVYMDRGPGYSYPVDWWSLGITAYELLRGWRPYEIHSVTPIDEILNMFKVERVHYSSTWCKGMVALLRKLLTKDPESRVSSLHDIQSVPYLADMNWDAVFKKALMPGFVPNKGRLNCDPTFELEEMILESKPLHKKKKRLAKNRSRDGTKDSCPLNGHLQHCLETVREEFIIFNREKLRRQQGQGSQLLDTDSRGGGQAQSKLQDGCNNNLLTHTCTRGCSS

As for `Nc1cc(C(F)(F)F)c(-c2cc(N3CCOCC3)nc(N3CCOCC3)n2)cn1` [Buparlisib], the remaining activity at 1 µM in test [1] worked out at 100%; in test [2], 91%; in test [3], 59%; in test [4] it was 99%. In addition, the remaining activity at 10 µM in test [1] (10 µM, read-out: YANK2 (% of control at 10 µM)) was 100%; in test [2] (setting [5]) it was 94%; in test [3] (setting [5]), 59%; in test [4] (10 µM, read-out: PRKCH (% of control at 10 µM)) it was 100%.
Take `Cn1c(=O)n(-c2ccc(C(C)(C)C#N)cc2)c2c3cc(-c4cnc5ccccc5c4)ccc3ncc21` [Dactolisib, 2-methyl-2-[4-(3-methyl-2-oxo-8-quinolin-3-yl-2,3-dihydroimidazo[4,5-c]quinolin-1-yl)-phenyl] propionitrile]: the remaining activity at 1 µM in test [1] was found to be 96%; in test [2], 100%; in test [3], 63%; in test [4] it was 78%.
For `COc1ncc(-c2ccc3nccc(-c4ccnnc4)c3c2)cc1NS(=O)(=O)c1ccc(F)cc1F` [Omipalisib], the remaining activity at 1 µM in test [1], in test [2], in test [3] and in test [4] was 100% throughout.
As to `FC(F)c1nc2ccccc2n1-c1nc(N2CCOCC2)nc(N2CCOCC2)n1` [ZSTK474, 2-(difluoromethyl)-1-[4,6-di(4-morpholinyl)-1,3,5-triazin-2-yl]-1H-benzimidazole], the remaining activity at 1 µM turned out to be 100% in test [1], 100% in test [2], 73% in test [3] and 98% in test [4].
